SMILES strings stand for the structures.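 Five concentrations, 48 hours, 96-well plates. GI50 = concentration required for 50% inhibition of growth. Definition used: TGI = concentration required for complete inhibition of growth.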 Some results are limits rather than exact numbers.

What all share (assay): NCI-60 cell line screen, 48 h
The subject of assay [1] is A498 renal.
Assay [2] concerns ACHN renal.
Assay [3] deals with BT-549 breast.
Assay [4] concerns CAKI-1 renal.
Assay [5] concerns HCT-116 colon.
Assay [6] concerns HCT-15 colon.
The subject of assay [7] is HOP-92 NSCLC.
Assay [8] concerns HS 578T breast.
Assay [9] relates to MDA-N.
For assay [10], the system named is NCI-H226 lung.
Assay [11] relates to NCI-H522 lung.
Assay [12] has as its system SK-MEL-28 melanoma.
Assay [13] has as its system SK-MEL-5 melanoma.
The subject of assay [14] is UO-31 renal.

With `Cn1c(=O)c2c(ncn2CCSS(=O)(=O)O)n(C)c1=O`, the TGI in [1], in assay [2], in assay [3], in assay [4], in [5] and in assay [6] was over 100 µM in each case. In addition, the TGI in assay [7], in [8], in [9], in assay [10], in assay [11] and in assay [12] was over 100 µM in each case. The TGI in [13] and in [14] was over 100 µM in each case.

For the molecule `Clc1ccc2c(c1)CC1C[N+]3=C(CCCC3)C1=C2` (stereo unspecified), the TGI in assay [1], in assay [2], in [3], in assay [4], in assay [5] and in assay [6] was over 100 µM throughout. The TGI in assay [7], in assay [8], in assay [9], in assay [10], in assay [11] and in assay [12] was over 100 µM in each case. Moreover, the TGI in assay [13] and in assay [14] was over 100 µM each time.

Consider `CC(=O)O[C@H]1[C@H](OC(C)=O)[C@@H](CN=[N+]=[N-])OCO[C@@H]1CN=[N+]=[N-]`, for which the TGI in [1], in assay [2], in [3], in assay [5], in assay [6] and in [7] was over 100 µM throughout. Further, the TGI in assay [8], in [9], in assay [10], in assay [11], in assay [12] and in [13] was over 100 µM in each case.

As to `COc1ccc(N2CCN(Cc3c(C(C)=O)[n+](=O)c4ccccc4n3[O-])CC2)cc1`, the TGI is over 100 µM in assay [1]; over 100 µM in assay [2]; 53.3 µM in assay [3]; over 100 µM in assay [4]; over 100 µM in [5]; over 100 µM in assay [6]. The TGI in assay [7], in [8], in assay [9], in assay [10], in assay [11] and in [12] was over 100 µM each time. Besides, the TGI in assay [13] and in assay [14] was over 100 µM throughout.

Consider `COc1cc(/C=C/c2sc3ccccc3[n+]2C)ccc1N(C)C`, for which the TGI in [1] is over 100 µM; in assay [2], 28.6 µM; in assay [3] it was 3.7 µM; in [4], over 100 µM; in assay [5], 17.9 µM; in assay [6] it was over 100 µM. Moreover, the TGI is 34.9 µM in [7]; over 100 µM in assay [8]; 22.2 µM in [9]; 50.6 µM in [10]; 15.8 µM in [11]; 25.7 µM in [12]. Besides, the TGI in assay [13] stood at 18.5 µM. The GI50 in assay [5] is 6.05 µM; in assay [7], 13 µM; in assay [9], 7.11 µM; in assay [11] it was 0.467 µM; in [12], 12.4 µM; in assay [13], 5.49 µM.

`CC(=O)O[C@H]1CC[C@H]2[C@@H]3CCC4=C(C(=O)C=CC4(C)OC(C)=O)[C@H]3CC[C@]12C` (stereo partly specified): the TGI in assay [1], in assay [2], in [3], in assay [4], in assay [5] and in assay [6] was over 100 µM in each case. In addition, the TGI in assay [7], in [8], in assay [9], in assay [10], in assay [11] and in [12] was over 100 µM throughout. Also, the TGI in [13] and in assay [14] was over 100 µM each time.

Regarding `O=C(N/N=C/C=C/c1ccc([N+](=O)[O-])o1)c1ccc(Br)s1`, the TGI in [1] was over 100 µM; in [2], 38.7 µM; in assay [3], 51.8 µM; in [4] it was 66.2 µM; in [5] it was 13.3 µM; in assay [6], 35.7 µM. Besides, the TGI in assay [7] was determined as 25.7 µM; in assay [8], 31.7 µM; in assay [9], 56.7 µM; in [10], 47.3 µM; in assay [12] it was 52.3 µM; in [13], 46.1 µM. The TGI in assay [14] was determined as 48.9 µM.

Regarding `COCC(=O)OC1CCn2c1nc1c2C(=O)C(C)=C(NC(C)=O)C1=N` (stereo unspecified), the TGI was found to be 32.9 µM in assay [1]; 19.9 µM in assay [2]; 3.76 µM in [3]; 23.2 µM in [4]; 11.4 µM in [5]; 27.5 µM in assay [6]. Besides, the TGI was 9.11 µM in [7]; 18.8 µM in [8]; 3.23 µM in assay [9]; 33.2 µM in assay [10]; 21.5 µM in assay [11]; 10.6 µM in assay [12]. Besides, the TGI in assay [13] is 5.92 µM; in assay [14], 24 µM.

As for `COc1ccc(C(=O)/C=C/c2ccc(OCC(=O)O)cc2)cc1`, the TGI in assay [1], in assay [2], in [3], in assay [4], in [5] and in [6] was over 100 µM in each case. Moreover, the TGI in assay [7], in [8], in [9], in assay [11], in assay [12] and in assay [13] was over 100 µM each time. The TGI in [14] is over 100 µM.

For the molecule `N#CC(C#N)=Cc1ccc(C=C2SC3=C(SCCS3)S2)s1`, the TGI is 42.7 µM in [1]; over 100 µM in assay [2]; 15.2 µM in assay [3]; over 100 µM in assay [4]; over 100 µM in [5]; over 100 µM in assay [6]. For the same molecule, the TGI in [7] is over 100 µM; in [8], over 100 µM; in assay [9] it was 3.03 µM; in [10] it was 9.73 µM; in [11], over 100 µM; in [12], over 100 µM. Besides, the TGI in assay [13] and in assay [14] was over 100 µM throughout.

These data come from PubChem BioAssay (NCI).
